# pEC50: −log10 of the molar value.
# Tested on: Hepatitis C virus
# Assay: Antiviral activity against HCV genotype 1a infected in Huh7.5 cells assessed as inhibition of viral replication after 3 days by blot hybridization analysis
# Assay type: functional, organism-based, Hepacivirus hominis
# Details: subtype 1a, Huh7.5, 72 h; call rule not given here
SMILES,pEC50,EC90 [µM]
Cc1cccc(C(=O)Nc2ncc(Br)s2)c1O,< 5.00,> 10
CC(=O)Oc1ccccc1C(=O)Nc1ncc(C(F)(F)F)s1,< 5.00,> 10
O=C(Nc1ncc([N+](=O)[O-])s1)c1ccccc1O [TIZOXANIDE],6.60,1
CC(=O)Oc1ccccc1C(=O)Nc1ncc(Cl)s1,6.40,1.9
O=C(Nc1nc(-c2ccccc2)cs1)c1ccccc1O,< 5.00,> 10
N#Cc1cnc(NC(=O)c2ccccc2O)s1,< 5.00,> 10
O=C(Nc1ncc(F)s1)c1ccccc1O,< 5.00,> 10
O=C(Nc1ncc(Br)s1)c1cccc(Cl)c1O,< 5.00,> 10
CC(=O)Oc1c(C)cccc1C(=O)Nc1ncc(Cl)s1,6.00,3.8
Cc1ccc(O)c(C(=O)Nc2ncc(Cl)s2)c1,5.00,10
CC(=O)Oc1ccc(C)cc1C(=O)Nc1ncc(Br)s1,5.52,8.6
CC(=O)Oc1ccccc1C(=O)Nc1ncc(Br)s1,5.48,10
CC(=O)Oc1ccccc1C(=O)Nc1ncc([N+](=O)[O-])s1 [NITAZOXANIDE],6.48,1.1
O=C(Nc1nc(-c2ccccc2)c(Br)s1)c1ccccc1O,< 5.00,> 10
O=C(Nc1ncc(Br)s1)c1ccccc1O,5.55,9.4

# Tested on: not listed separately
# Assay: Cytotoxicity against human Ava5 cells after 3 days by neutral red dye assay
# Assay type: cell-based
# Details: not given
row,SMILES,CC50 at 72 h [µM]
1,Cc1cccc(C(=O)Nc2ncc(Br)s2)c1O,15
2,CC(=O)Nc1cnc(NC(=O)c2ccccc2O)s1,11
3,CS(=O)(=O)c1cnc([N-]C(=O)c2ccccc2O)s1.[Na+],43
4,CC(=O)Oc1ccccc1C(=O)Nc1ncc(C(F)(F)F)s1,1.7
5,O=C(Nc1ncc([N+](=O)[O-])s1)c1ccccc1O [TIZOXANIDE],15
6,CC(=O)Oc1ccccc1C(=O)Nc1ncc(Cl)s1,4.3
7,O=C(Nc1nc(-c2ccccc2)cs1)c1ccccc1O,14
8,N#Cc1cnc(NC(=O)c2ccccc2O)s1,15
9,O=C(Nc1ncc(F)s1)c1ccccc1O,24
10,O=C(Nc1ncc(Br)s1)c1cccc(Cl)c1O,10
11,CC(=O)Oc1c(C)cccc1C(=O)Nc1ncc(Cl)s1,12
12,Cc1ccc(O)c(C(=O)Nc2ncc(Cl)s2)c1,2.3
13,CC(=O)Oc1ccc(C)cc1C(=O)Nc1ncc(Br)s1,10
14,CC(=O)Oc1ccccc1C(=O)Nc1ncc(Br)s1,12
15,CC(=O)Oc1ccccc1C(=O)Nc1ncc([N+](=O)[O-])s1 [NITAZOXANIDE],35
16,O=C(Nc1nc(-c2ccccc2)c(Br)s1)c1ccccc1O,16
17,O=C(Nc1ncc(Br)s1)c1ccccc1O,20

# Tested on: Hepatitis C virus
# Assay: Antiviral activity against HCV genotype 1b infected in Ava5 cells assessed as inhibition of viral replication after 3 days by blot hybridization analysis
# Assay type: functional, organism-based, Hepacivirus hominis
# Details: Ava5, 72 h
SMILES,pEC50,EC90 [µM]
Cc1cccc(C(=O)Nc2ncc(Br)s2)c1O,< 5.72,> 10
CC(=O)Nc1cnc(NC(=O)c2ccccc2O)s1,< 5.00,> 10
CS(=O)(=O)c1cnc([N-]C(=O)c2ccccc2O)s1.[Na+],5.82,5.2
CC(=O)Oc1ccccc1C(=O)Nc1ncc(C(F)(F)F)s1,< 5.37,> 8.2
O=C(Nc1ncc([N+](=O)[O-])s1)c1ccccc1O [TIZOXANIDE],6.82,0.81
CC(=O)Oc1ccccc1C(=O)Nc1ncc(Cl)s1,6.64,1.1
O=C(Nc1nc(-c2ccccc2)cs1)c1ccccc1O,< 5.46,≥ 10
N#Cc1cnc(NC(=O)c2ccccc2O)s1,< 5.00,> 10
O=C(Nc1ncc(F)s1)c1ccccc1O,< 5.00,> 10
O=C(Nc1ncc(Br)s1)c1cccc(Cl)c1O,< 5.28,> 10
CC(=O)Oc1c(C)cccc1C(=O)Nc1ncc(Cl)s1,6.23,8.9
Cc1ccc(O)c(C(=O)Nc2ncc(Cl)s2)c1,< 5.00,> 10
CC(=O)Oc1ccc(C)cc1C(=O)Nc1ncc(Br)s1,5.52,7.8
CC(=O)Oc1ccccc1C(=O)Nc1ncc(Br)s1,5.42,11
CC(=O)Oc1ccccc1C(=O)Nc1ncc([N+](=O)[O-])s1 [NITAZOXANIDE],6.68,0.93
O=C(Nc1nc(-c2ccccc2)c(Br)s1)c1ccccc1O,< 5.66,> 7
O=C(Nc1ncc(Br)s1)c1ccccc1O,5.31,10

# Tested on: not listed separately
# Assay: Toxicity in po dosed dog
# Assay type: organism-based, Canis lupus familiaris
# Details: in vivo
row,SMILES,MTD [mg/kg]
1,Cc1cccc(C(=O)Nc2ncc(Br)s2)c1O,< 25

# Tested on: not listed separately
# Assay: Selectivity index, ratio of CC50 for human Ava5 cells to EC50 for HCV genotype 1b infected in human Ava5 cells
# Details: not given
row,SMILES,Ratio CC50/EC50
1,Cc1cccc(C(=O)Nc2ncc(Br)s2)c1O,11
2,CS(=O)(=O)c1cnc([N-]C(=O)c2ccccc2O)s1.[Na+],29
3,CC(=O)Oc1ccccc1C(=O)Nc1ncc(C(F)(F)F)s1,0.9
4,O=C(Nc1ncc([N+](=O)[O-])s1)c1ccccc1O [TIZOXANIDE],100
5,CC(=O)Oc1ccccc1C(=O)Nc1ncc(Cl)s1,16
6,O=C(Nc1nc(-c2ccccc2)cs1)c1ccccc1O,7.4
7,N#Cc1cnc(NC(=O)c2ccccc2O)s1,4.1
8,O=C(Nc1ncc(Br)s1)c1cccc(Cl)c1O,2.7
9,CC(=O)Oc1c(C)cccc1C(=O)Nc1ncc(Cl)s1,11
10,CC(=O)Oc1ccc(C)cc1C(=O)Nc1ncc(Br)s1,3.3
11,CC(=O)Oc1ccccc1C(=O)Nc1ncc(Br)s1,3
12,CC(=O)Oc1ccccc1C(=O)Nc1ncc([N+](=O)[O-])s1 [NITAZOXANIDE],143
13,O=C(Nc1nc(-c2ccccc2)c(Br)s1)c1ccccc1O,7.3
14,O=C(Nc1ncc(Br)s1)c1ccccc1O,20

# Tested on: not listed separately
# Assay: Selectivity index, ratio of CC50 for human Huh7.5 cells to EC50 for HCV genotype 1a infected in human Huh7.5 cells
# Design: species or system Huh-7
# Details: not given
row,SMILES,Ratio CC50/EC50
1,O=C(Nc1ncc([N+](=O)[O-])s1)c1ccccc1O [TIZOXANIDE],56
2,CC(=O)Oc1ccccc1C(=O)Nc1ncc(Cl)s1,14
3,CC(=O)Oc1c(C)cccc1C(=O)Nc1ncc(Cl)s1,14
4,CC(=O)Oc1ccc(C)cc1C(=O)Nc1ncc(Br)s1,3.7
5,CC(=O)Oc1ccccc1C(=O)Nc1ncc(Br)s1,6
6,CC(=O)Oc1ccccc1C(=O)Nc1ncc([N+](=O)[O-])s1 [NITAZOXANIDE],149
7,O=C(Nc1ncc(Br)s1)c1ccccc1O,31.4

# Tested on: not listed separately
# Assay: Cytotoxicity against human Huh7.5 cells after 3 days by neutral red dye assay
# Assay type: cell-based, Huh-7
# Details: not given
row,SMILES,CC50 at 72 h [µM]
1,Cc1cccc(C(=O)Nc2ncc(Br)s2)c1O,25
2,CC(=O)Oc1ccccc1C(=O)Nc1ncc(C(F)(F)F)s1,14
3,O=C(Nc1ncc([N+](=O)[O-])s1)c1ccccc1O [TIZOXANIDE],14
4,CC(=O)Oc1ccccc1C(=O)Nc1ncc(Cl)s1,5.7
5,O=C(Nc1nc(-c2ccccc2)cs1)c1ccccc1O,29
6,N#Cc1cnc(NC(=O)c2ccccc2O)s1,11
7,O=C(Nc1ncc(F)s1)c1ccccc1O,2.9
8,O=C(Nc1ncc(Br)s1)c1cccc(Cl)c1O,11
9,CC(=O)Oc1c(C)cccc1C(=O)Nc1ncc(Cl)s1,14
10,Cc1ccc(O)c(C(=O)Nc2ncc(Cl)s2)c1,16
11,CC(=O)Oc1ccc(C)cc1C(=O)Nc1ncc(Br)s1,11
12,CC(=O)Oc1ccccc1C(=O)Nc1ncc(Br)s1,21
13,CC(=O)Oc1ccccc1C(=O)Nc1ncc([N+](=O)[O-])s1 [NITAZOXANIDE],49
14,O=C(Nc1nc(-c2ccccc2)c(Br)s1)c1ccccc1O,62
15,O=C(Nc1ncc(Br)s1)c1ccccc1O,88

# Species on record: Rattus norvegicus
# Assay: Toxicity in rat
# Assay type: organism-based
# Details: in vivo
row,SMILES,Activity
1,Cc1cccc(C(=O)Nc2ncc(Br)s2)c1O,Toxic

# Tested on: not listed separately
# Assay: Aqueous solubility of the compound
# Assay type: physicochemical
# Details: buffer
row,SMILES,solubility
1,CC(=O)Oc1ccccc1C(=O)Nc1ncc(C(F)(F)F)s1,soluble

# Tested on: Canis familiaris
# Assay: Drug metabolism in dog assessed as deactyl derivative formation at 1 mg/kg, iv after 1 hr
# Assay type: ADME, organism-based, Canis lupus familiaris
# Design: dose 1 mg/kg, route intravenous
# Details: in vivo
row,SMILES,Drug metabolism
1,Cc1ccc(O)c(C(=O)Nc2ncc(Cl)s2)c1,Active

# Tested on: Canis familiaris
# Assay: Drug metabolism in dog assessed as glucurono-conjugate formation at 1 mg/kg, iv after 2 hrs
# Assay type: ADME, organism-based, Canis lupus familiaris
# Design: dose 1 mg/kg, route intravenous
# Details: in vivo
row,SMILES,Drug metabolism
1,Cc1ccc(O)c(C(=O)Nc2ncc(Cl)s2)c1,Active

# — ChEMBL document CHEMBL1938327, “Thiazolides as novel antiviral agents. 2. Inhibition of hepatitis C virus replication” (J Med Chem, 2011)
